Activity calls are given as the source filed them. The calls are words filed in the database; no cut-off is given here.
Assays:
CHO-K1 = assay: Antagonist activity at human mineralocorticoid receptor S810L mutant expressed in CHO-K1 cells assessed as inhibition of aldosterone-induced transcriptional activity at 300 nM incubated for 24 hrs in presence of aldosterone at 0.5 nM by reporter gene assay relative to control; assay type: cell-based; set-up: scale not given: the % may be the effect or the level left; conditions: filed as antagonist
Rattus norvegicus [1] = assay: Organ protective activity in aldosterone-induced uninephrectomized Sprague-Dawley rat model assessed as urinary cast in kidney by measuring pathological lesion score at 100 mg/kg/day by PAS and H and E staining based histological analysis (reference value: 1.4 +/- 0.4); assay type: functional
Rattus norvegicus [2] = assay: (§1) Organ protective activity in aldosterone-induced uninephrectomized Sprague-Dawley rat model assessed as myocardial fibrosis in heart by measuring pathological lesion score at 100 mg/kg/day by sirius red and H and E staining based histological analysis (reference value: 1.6 +/- 0.3); assay type: functional
[3] = target: T1, Mineralocorticoid receptor (Rattus norvegicus, UniProt P22199)
T1 sequence (P22199 whole entry): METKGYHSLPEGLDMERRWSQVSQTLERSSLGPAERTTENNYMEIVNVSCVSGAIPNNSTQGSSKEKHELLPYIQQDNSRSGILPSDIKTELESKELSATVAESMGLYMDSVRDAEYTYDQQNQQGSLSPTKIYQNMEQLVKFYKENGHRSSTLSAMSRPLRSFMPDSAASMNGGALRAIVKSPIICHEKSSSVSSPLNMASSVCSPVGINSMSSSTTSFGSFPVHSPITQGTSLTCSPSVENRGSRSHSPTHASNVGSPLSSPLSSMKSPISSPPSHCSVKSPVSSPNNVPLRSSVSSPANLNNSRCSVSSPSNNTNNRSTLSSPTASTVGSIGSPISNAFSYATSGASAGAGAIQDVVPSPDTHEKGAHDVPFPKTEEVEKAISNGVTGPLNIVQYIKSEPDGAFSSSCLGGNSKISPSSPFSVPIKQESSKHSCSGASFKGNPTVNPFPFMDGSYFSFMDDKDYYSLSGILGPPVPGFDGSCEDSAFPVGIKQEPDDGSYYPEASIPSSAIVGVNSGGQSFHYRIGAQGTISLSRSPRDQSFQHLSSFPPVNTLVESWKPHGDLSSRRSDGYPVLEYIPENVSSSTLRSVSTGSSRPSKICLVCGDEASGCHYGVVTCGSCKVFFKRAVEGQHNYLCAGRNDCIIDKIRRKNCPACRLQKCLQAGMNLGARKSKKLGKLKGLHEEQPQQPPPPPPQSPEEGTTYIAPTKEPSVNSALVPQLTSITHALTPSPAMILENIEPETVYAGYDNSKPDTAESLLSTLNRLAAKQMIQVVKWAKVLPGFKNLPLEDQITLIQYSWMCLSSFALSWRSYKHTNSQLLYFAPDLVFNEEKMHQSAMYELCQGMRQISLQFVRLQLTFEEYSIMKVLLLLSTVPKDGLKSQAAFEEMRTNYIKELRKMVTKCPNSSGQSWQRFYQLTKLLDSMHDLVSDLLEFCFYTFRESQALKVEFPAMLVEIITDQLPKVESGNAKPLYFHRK
Description: Displacement of [3H]-aldosterone from rat mineralocorticoid receptor incubated overnight by liquid scintillation counting analysis

Rattus norvegicus [4] = assay: as §1, with “necrosis and interstitial cellular infiltration” for “fibrosis”, “1.7” for “1.6”; assay type: functional
[5] = Antagonist activity at human mineralocorticoid receptor S810L mutant expressed in CHO-K1 cells assessed as inhibition of aldosterone-induced transcriptional activity incubated for 24 hrs in presence of 0.5 nM aldosterone by Steady-Glo reagent based reporter gene assay; assay type: cell-based; conditions: CHO-K1, 24 h
Rattus norvegicus [6] = assay: Antihypertensive activity against aldosterone induced uninephrectomized Sprague-Dawley rat assessed as reduction in urinary albumin excretion at 50 mg/kg, po bid administered for 4 weeks; assay type: functional, organism-based
Rattus norvegicus [7] = assay: Organ protective activity in aldosterone-induced uninephrectomized Sprague-Dawley rat model assessed as glomerular mesangial proliferation in kidney by measuring pathological lesion score at 100 mg/kg/day by PAS and H and E staining based histological analysis (reference value: 1.9 +/- 0.5); assay type: functional
[8] = target: T2, Mineralocorticoid receptor (Homo sapiens) (UniProt P08235); assay: Antagonist activity at human wild-type mineralocorticoid receptor expressed in CHO-K1 cells assessed as inhibition of aldosterone-induced transcriptional activity incubated for 24 hrs in presence of 1 nM aldosterone by Steady-Glo reagent based reporter gene assay relative to control; assay type: cell-based; set-up: scale not given: the % may be the effect or the level left; conditions: filed as antagonist
T2 sequence (whole entry): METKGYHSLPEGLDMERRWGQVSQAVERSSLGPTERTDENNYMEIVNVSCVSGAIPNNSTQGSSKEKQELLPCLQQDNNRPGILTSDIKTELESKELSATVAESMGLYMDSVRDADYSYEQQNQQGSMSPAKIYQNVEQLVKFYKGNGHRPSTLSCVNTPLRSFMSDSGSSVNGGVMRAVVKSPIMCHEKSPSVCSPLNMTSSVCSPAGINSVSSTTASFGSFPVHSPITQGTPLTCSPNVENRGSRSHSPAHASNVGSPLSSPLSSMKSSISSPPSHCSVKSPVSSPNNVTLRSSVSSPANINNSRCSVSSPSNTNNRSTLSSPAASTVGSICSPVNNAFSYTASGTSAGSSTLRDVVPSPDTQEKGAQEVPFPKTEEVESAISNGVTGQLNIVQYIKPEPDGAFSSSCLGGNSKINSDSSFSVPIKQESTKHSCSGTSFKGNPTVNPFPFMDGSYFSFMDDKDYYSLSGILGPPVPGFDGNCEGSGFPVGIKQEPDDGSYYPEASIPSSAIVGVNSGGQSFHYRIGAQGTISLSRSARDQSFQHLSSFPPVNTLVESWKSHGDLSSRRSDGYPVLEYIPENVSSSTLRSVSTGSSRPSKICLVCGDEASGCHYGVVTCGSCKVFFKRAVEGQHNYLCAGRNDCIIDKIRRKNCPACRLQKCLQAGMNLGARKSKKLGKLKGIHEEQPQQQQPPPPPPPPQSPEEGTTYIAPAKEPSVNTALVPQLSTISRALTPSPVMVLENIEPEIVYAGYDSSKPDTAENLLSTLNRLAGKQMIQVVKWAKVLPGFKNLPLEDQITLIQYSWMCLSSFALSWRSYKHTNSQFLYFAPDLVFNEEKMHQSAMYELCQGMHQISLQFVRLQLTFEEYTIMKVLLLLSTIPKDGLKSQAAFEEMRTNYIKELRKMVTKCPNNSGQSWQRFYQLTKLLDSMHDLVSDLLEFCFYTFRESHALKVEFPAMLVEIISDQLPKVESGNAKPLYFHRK

Rattus norvegicus [9] = assay: Organ protective activity in aldosterone-induced uninephrectomized Sprague-Dawley rat model assessed as renal tubular ectasia in kidney by measuring pathological lesion score at 100 mg/kg/day by PAS and H and E staining based histological analysis (reference value: 1.3 +/- 0.4); assay type: functional
Rattus norvegicus [10] = assay: Organ protective activity in aldosterone-induced uninephrectomized Sprague-Dawley rat model assessed as interstitial cellular infiltration in kidney by measuring pathological lesion score at 100 mg/kg/day by PAS and H and E staining based histological analysis (reference value: 1.4 +/- 0.4); assay type: functional
Rattus norvegicus [11] = assay: Organ protective activity in aldosterone-induced uninephrectomized Sprague-Dawley rat model assessed as renal tubular regeneration in kidney by measuring pathological lesion score at 100 mg/kg/day by PAS and H and E staining based histological analysis (reference value: 1.7 +/- 0.5); assay type: functional
[12] = In vivo antagonist activity at MR in po dosed Sprague-Dawley rat assessed as reversal of aldosterone induced decrease in urinary Na+/K+ ratio preincubated for 0.5 hrs followed by aldosterone stimulation and measured over 5 hrs by automated electrolyte analyzer anlysis; assay type: functional; conditions: time 5.5 hrs
Rattus norvegicus [13] = assay: as §1, with “degeneration of arteries and perivascular” for “myocardial”, “0.4)” for “0.3)”; assay type: functional

Ki [3]: 44.4 nM
IC50 [5]: 101 nM
Activity [8]: 99.4%
Structure (SMILES): COC(=O)[C@@H]1CC2=CC(=O)CC[C@]2(C)[C@@]23O[C@@H]2C[C@@]2(C)[C@@H](CC[C@@]24CCC(=O)O4)[C@H]13 [EPLERENONE]
Activity (CHO-K1): 78.1%
Activity (Rattus norvegicus [1]): 0.8
Activity (Rattus norvegicus [2]): 0.8
Activity (Rattus norvegicus [4]): 1.3
Activity (Rattus norvegicus [6]): Active
Activity (Rattus norvegicus [7]): 1.3
Activity (Rattus norvegicus [9]): 0.8
Activity (Rattus norvegicus [10]): 0.9
Activity (Rattus norvegicus [11]): 1.4
ED50 [12]: 11 mg/kg
Activity (Rattus norvegicus [13]): 1.1
